US20100129800A1, “POLYMERS AND THEIR USE AS FLUORESCENT LABELS” (priority 2007, published 2010)

Experiment: Fluorescence properties of the new compounds (excitation and emission wavelengths)
Format: physicochemical
Details: free compound
For `CC(O)C(CO)NC(=O)c1c2ccccc2nc2c1[nH]c1ccccc12` (stereo not drawn) [Compound 2a, N-(1,3-dihydroxybutan-2-yl)-10H-indolo[3,2-d]quinoline-11-carboxamide], the “Fluorescence Excitation (nm)” value was 346 nm and the “Fluorescence emission (nm)” value was 402 nm. For `CC(O)C(CO)NC(=O)c1c2ccccc2nc2ccccc12` (stereo not drawn) [Compound 2b, N-(1,3-dihydroxybutan-2-yl)acridine-9-carboxamide], the “Fluorescence Excitation (nm)” value was 358 nm and the “Fluorescence emission (nm)” value was 439 nm. In the case of `CC(O)C(CO)NC(=O)CNC(=O)c1c2ccccc2nc2ccccc12` (stereo not drawn) [Compound 2d, N-((1,3-dihydroxybutan-2-ylcarbamoyl)methyl)acridine-9-carboxamide], the “Fluorescence Excitation (nm)” value was 247 nm and the “Fluorescence emission (nm)” value was 440 nm. With `C[C@@H](O)[C@H](CO)NC(=O)c1cc(-c2ccccc2)nc2ccccc12` [Compound 2e, N-((2S, 3R)-1,3-dihydroxybutan-2-yl)-2-phenylquinoline-4-carboxamide] the “Fluorescence Excitation (nm)” value was 326 nm and the “Fluorescence emission (nm)” value was 377 nm. For `C[C@@H](O)[C@H](CO)NC(=O)CN1c2ccccc2C=C2C3C=CC=CC3=NC21` (stereo partly drawn) [Compound 2f, N-((2S, 3R)-1,3-dihydroxybutan-2-yl)-(4a, 10a-dihydro-10,11-diazabenzo[b]fluoren-10-yl)acetamide], the “Fluorescence Excitation (nm)” value was 261 nm and the “Fluorescence emission (nm)” value was 456 nm. For `OC[C@H](O)CNc1c2ccccc2nc2ccccc12` [Compound 5a, (R)-3-(Acridin-9-ylamino)propane-1,2-diol], the “Fluorescence Excitation (nm)” value was 433 nm. With `Cn1c2c3ccccc3nc-2c(NC[C@H](O)CO)c2ccccc21` [Compound 5b, (S)-3-(5-Methyl-5H-indolo[3,2b]quinolin-11-ylamino)propane-1,2-diol] the “Fluorescence Excitation (nm)” value was 340 nm and the “Fluorescence emission (nm)” value was 469 nm. With `CC(O)C(COP(=O)(O)OC(C)C(CO)NC(=O)c1c2ccccc2nc2c1[nH]c1ccccc12)NC(=O)c1c2ccccc2nc2c1[nH]c1ccccc12` (stereo not drawn) [Example 28, O-{2-N-(10H-indolo[3,2-d]quinoline-11-carbamoyl)-(1-hydroxybut-3-yl)} and O-(2-N-{10H-indolo[3,2-d]quinoline-11-carbamoyl}-3-hydroxybut-1-yl)phosphate] the “Fluorescence Excitation (nm)” value was 346 nm and the “Fluorescence emission (nm)” value was 495 nm. With `CC(OP(=O)(O)OCC(O)CNc1c2nc3ccccc3c-2n(C)c2ccccc12)C(CO)NC(=O)c1c2ccccc2nc2ccccc12` [Example 31, O-{2-N-(Acridine-9-carbamoyl)-(1-hydroxybut-3-yl)} and O-{3-(5-methyl-5H-indolo[3,2b]quinolin-11-ylamino-(S)-(2-hydroxyprop-3-yl} phosphate] the “Fluorescence Excitation (nm)” value was 353 nm and the “Fluorescence emission (nm)” value was 441 nm. For `CC(OP(O)(=S)OC[C@@H](O)CNc1c2nc3ccccc3c-2n(C)c2ccccc12)C(CO)NC(=O)c1c2ccccc2nc2ccccc12` (stereo partly drawn) [Example 32, O-{2-N-(Acridine-9-carbamoyl)-(1-hydroxybut-3-yl)} and O-}3-(5-methyl-5H-indolo[3,2b]quinolin-11-ylamino-(S)-(2-hydroxyprop-3-yl} phosphorotioate], the “Fluorescence Excitation (nm)” value was 359 nm and the “Fluorescence emission (nm)” value was 448 nm. For `NC(=O)CCCOP(=O)(O)O[C@H](CNc1c2ccccc2nc2ccccc12)COP(=O)(O)O[C@@H](CO)CNc1c2ccccc2nc2ccccc12` [Example 33, O-[(R)-3-(Acridin-9-ylamino)-1-hydroxy-propane-2-yl]-phosphate (2-1) O-{2-N-(acridine-9-ylamino)-2-oxyprop-1-yl} phosphate(2-4) 4-hydroxybutirame], the “Fluorescence Excitation (nm)” value was 359 nm and the “Fluorescence emission (nm)” value was 440 nm.
